Measured values taken from publication PMC12655637, “Design, Synthesis, and Mechanistic Study of Novel Ciprofloxacin/Thiazole Chalcone Hybrids as Potential Anticancer Agents” (Pharmaceuticals, 2025).

Experiments:
[1] = tested on: SF-295; assay: NCI-60 screening, one-dose (10 µM) and five-dose, SRB; type: cell-based, human; conditions: five-dose, SF-295
[2] = tested on: SK-MEL-28; assay: as above; type: cell-based, human
[3] = tested on: U251; assay: as above; type: cell-based, human
[4] = tested on: UACC-62; assay: as above; type: cell-based
[5] = tested on: RPMI-8226; assay: as above; type: cell-based, human
[6] = tested on: OVCAR-8; assay: as above; type: cell-based, human
[7] = tested on: CCRF-CEM; assay: as above; type: cell-based, human
[8] = tested on: OVCAR-4; assay: as above; type: cell-based, human
[9] = tested on: MALME-3M; assay: as above; type: cell-based, human
[10] = tested on: 786−0; assay: as above; type: cell-based, human
[11] = tested on: NCI/ADR-RES; assay: as above; type: cell-based, human
[12] = tested on: colon HCT116 cancer cell line; assay: Cell cycle analysis, propidium iodide flow cytometry
Procedure: The effect of compounds 4b and 4d on the cell cycle progression of the colon HCT-116 cell line was evaluated using a Propidium Iodide Flow Cytometry Kit to measure the DNA content, as per the reported protocols [39].
Cell cycle analysis and measurement of apoptotic potential
The effect of compound 4b and 4d on cell cycle progression of colon HCT-116 cell line was evaluated using Propidium Iodide Flow Cytometry Kit to measure the DNA content according to the reported protocols. The HCT116 cells used in this work were obtained from the American Type Culture Collection. Cells were cultured in DMEM (Invitrogen/Life Technologies) supplemented with 10% FBS (Hyclone), 10 µg/ml insulin (Sigma), and 1% penicillin-streptomycin. The remaining chemicals and reagents were all from Sigma or Invitrogen. Growth media was removed, cells washed with warm PBS and aspirated. Adhered cells were detached from media by addition of 5 ml 10% trypsin/EDTA and incubated 2 minutes in the incubator. The suspended cells harvested, aspirated to a falcon tube, centrifuged at 2000 rpm for 5 minutes. Cell count performed after suspending the cells into a fresh media and stained with trypan blue, counted and used for preparation of the appropriate number of cells.

[13] = tested on: MCF7; assay: NCI-60 screening, one-dose (10 µM) and five-dose, SRB; type: cell-based, human
[14] = tested on: HOP-92; assay: as above; type: cell-based, human
[15] = tested on: SF-539; assay: as above; type: cell-based, human; conditions: five-dose, SF-539
[16] = Homo sapiens, read-out: LC50 (the source's name)
[17] = Homo sapiens, five-dose, SK-MEL-28
[18] = Homo sapiens, U-251, five-dose, U251
[19] = Homo sapiens, five-dose, UACC-62
[20] = Homo sapiens, five-dose, OVCAR-8
[21] = Homo sapiens, five-dose, read-out: LC50 (the source's name)
[22] = Homo sapiens, five-dose, OVCAR-4
[23] = Homo sapiens, five-dose, HOP-92

Question: For Cc1nc(SCC(=O)N2CCN(c3cc4c(cc3F)c(=O)c(C(=O)O)cn4C3CC3)CC2)sc1C(=O)/C=C/c1cccc(F)c1 [Compound 4d, (E)-1-Cyclopropyl-6-fluoro-7-(4-(2-((5-(3-(3-fluorophenyl)acryloyl)-4-methylthiazol-2-yl)thio)acetyl)piperazin-1-yl)-4-oxo-1,4-dihydroquinoline-3-carboxylic Acid], which IC50 ([1]; Homo sapiens) is on record?
Answer: Its IC50 is greater than 100 µM.

Question: What about the CC50 [1, 16] of the same compound?
Answer: Its CC50 is greater than 100 µM.

Question: And the TGI [1]?
Answer: Its TGI is 8.7 µM.

Question: What about the activity at 10 µM ([2]; Homo sapiens, 10 μM, SK-MEL-28, Melanoma, read-out: Growth percentage) of the same compound?
Answer: Its activity at 10 µM is 77.5%.

Question: And the GI50 [2, 17]?
Answer: The GI50 was greater than 100 µM.

Question: What about the IC50 [2, 17] of the same compound?
Answer: The IC50 was greater than 100 µM.

Question: And the CC50 ([2]; Homo sapiens, five-dose, SK-MEL-28, read-out: LC50 (the source's name))?
Answer: The CC50 was greater than 100 µM.

Question: And the TGI ([2]; five-dose, SK-MEL-28)?
Answer: The TGI was 100.0 µM.

Question: And the activity at 10 µM ([3]; Homo sapiens, U-251, 10 μM, U251, CNS Cancer, read-out: Growth percentage)?
Answer: Its activity at 10 µM is -7.6%.

Question: And the GI50 [3, 18]?
Answer: The GI50 was greater than 100 µM.

Question: What about the IC50 [3, 18] of the same compound?
Answer: The IC50 was greater than 100 µM.

Question: And the CC50 ([3]; Homo sapiens, U-251, five-dose, U251, read-out: LC50 (the source's name))?
Answer: The CC50 was greater than 100 µM.

Question: What about the TGI ([3]; five-dose, U251) of the same compound?
Answer: Its TGI is 100.0 µM.

Question: What about the activity at 10 µM ([4]; Homo sapiens, 10 μM, UACC-62, Melanoma, read-out: Growth percentage) of the same compound?
Answer: Its activity at 10 µM is 33.1%.

Question: And the GI50 [4, 19]?
Answer: The GI50 was 25.7 µM.

Question: What about the IC50 [4, 19] of the same compound?
Answer: Its IC50 is greater than 100 µM.

Question: What about the CC50 ([4]; Homo sapiens, five-dose, UACC-62, read-out: LC50 (the source's name)) of the same compound?
Answer: The CC50 was greater than 100 µM.

Question: What about the TGI ([4]; five-dose, UACC-62) of the same compound?
Answer: Its TGI is 100.0 µM.

Question: What about the IC50 ([5]; Homo sapiens, RPMI-8226, RPMI-8226) of the same compound?
Answer: Its IC50 is 300 nM.

Question: What about the IC50 ([5]; Homo sapiens, RPMI-8226, five-dose, RPMI-8226) of the same compound?
Answer: The IC50 was 340 nM.

Question: And the GI50 ([5]; Homo sapiens, five-dose, RPMI-8226)?
Answer: Its GI50 is 190 nM.

Question: And the CC50 ([5]; Homo sapiens, five-dose, RPMI-8226, read-out: LC50 (the source's name))?
Answer: Its CC50 is 600 nM.

Question: And the TGI ([5]; five-dose, RPMI-8226)?
Answer: The TGI was 2.63 µM.

Question: What about the activity at 10 µM ([6]; Homo sapiens, 10 μM, OVCAR-8, Ovarian Cancer, read-out: Growth percentage) of the same compound?
Answer: Its activity at 10 µM is 35.2%.

Question: What about the GI50 [6, 20] of the same compound?
Answer: Its GI50 is greater than 100 µM.

Question: And the IC50 [6, 20]?
Answer: Its IC50 is greater than 100 µM.

Question: And the CC50 ([6]; Homo sapiens, five-dose, OVCAR-8, read-out: LC50 (the source's name))?
Answer: The CC50 was greater than 100 µM.

Question: What about the TGI ([6]; five-dose, OVCAR-8) of the same compound?
Answer: Its TGI is 100.0 µM.

Question: And the activity at 10 µM ([7]; Homo sapiens, 10 μM, Leukemia, read-out: Growth percentage)?
Answer: Its activity at 10 µM is 17.1%.

Question: What about the GI50 ([7]; Homo sapiens, five-dose) of the same compound?
Answer: The GI50 was 2880 nM.

Question: What about the IC50 ([7]; Homo sapiens, five-dose) of the same compound?
Answer: Its IC50 is 4.37 µM.

Question: And the CC50 [7, 21]?
Answer: The CC50 was greater than 100 µM.

Question: What about the TGI ([7]; five-dose) of the same compound?
Answer: The TGI was 4.3 µM.

Question: What about the activity at 10 µM ([8]; Homo sapiens, 10 μM, OVCAR-4, Ovarian Cancer, read-out: Growth percentage) of the same compound?
Answer: Its activity at 10 µM is 94.5%.

Question: And the GI50 [8, 22]?
Answer: Its GI50 is greater than 100 µM.

Question: And the IC50 [8, 22]?
Answer: Its IC50 is greater than 100 µM.

Question: What about the CC50 ([8]; Homo sapiens, five-dose, OVCAR-4, read-out: LC50 (the source's name)) of the same compound?
Answer: Its CC50 is greater than 100 µM.

Question: What about the TGI ([8]; five-dose, OVCAR-4) of the same compound?
Answer: Its TGI is 100.0 µM.

Question: What about the Growth percentage ([9]; 10 μM, Melanoma) of the same compound?
Answer: Its Growth percentage is 106.8%.

Question: And the GI50 ([9]; Homo sapiens, five-dose)?
Answer: The GI50 was greater than 100 µM.

Question: And the IC50 ([9]; Homo sapiens, five-dose)?
Answer: Its IC50 is greater than 100 µM.

Question: And the CC50 [9, 21]?
Answer: Its CC50 is greater than 100 µM.

Question: And the TGI ([9]; five-dose)?
Answer: Its TGI is 100.0 µM.

Question: And the activity at 10 µM ([10]; Homo sapiens, 10 μM, 786−0, Renal Cancer, read-out: Growth percentage)?
Answer: Its activity at 10 µM is 41.9%.

Question: And the IC50 ([10]; Homo sapiens, five-dose, 786−0)?
Answer: Its IC50 is greater than 100 µM.

Question: What about the CC50 ([10]; Homo sapiens, five-dose, 786−0, read-out: LC50 (the source's name)) of the same compound?
Answer: Its CC50 is greater than 100 µM.

Question: What about the TGI ([10]; five-dose, 786−0) of the same compound?
Answer: Its TGI is 100.0 µM.

Question: And the activity at 10 µM ([11]; Homo sapiens, 10 μM, Ovarian Cancer, read-out: Growth percentage)?
Answer: The activity at 10 µM was 110%.

Question: And the GI50 ([11]; Homo sapiens, five-dose)?
Answer: The GI50 was greater than 100 µM.

Question: What about the IC50 ([11]; Homo sapiens, five-dose) of the same compound?
Answer: The IC50 was greater than 100 µM.

Question: And the CC50 [11, 21]?
Answer: Its CC50 is greater than 100 µM.

Question: And the TGI ([11]; five-dose)?
Answer: Its TGI is 100.0 µM.

Question: What about the “Cell cycle arrest phase” value ([12]; HCT116) of the same compound?
Answer: The value was “G1 phase”.

Question: What about the “DNA Content G2/M Phase” value ([12]; HCT116 treated with IC50 concentration, DMSO 8.68%) of the same compound?
Answer: Its value is 3.75%.

Question: What about the “DNA Content S Phase” value ([12]; HCT116 treated with IC50 concentration, DMSO 27.03%) of the same compound?
Answer: Its value is 18.33%.

Question: And the “DNA Content G0-G1 Phase” value ([12]; HCT116 treated with IC50 concentration, DMSO 64.29%)?
Answer: The value was 77.92%.

Question: What about the activity at 10 µM ([13]; Homo sapiens, MCF7, 10 μM, MCF7, Breast Cancer, read-out: Growth percentage) of the same compound?
Answer: The activity at 10 µM was -57.6%.

Question: And the GI50 ([13]; Homo sapiens, five-dose, MCF7)?
Answer: The GI50 was 490 nM.

Question: And the IC50 ([13]; Homo sapiens, five-dose, MCF7)?
Answer: The IC50 was 690 nM.

Question: What about the CC50 ([13]; Homo sapiens, five-dose, MCF7, read-out: LC50 (the source's name)) of the same compound?
Answer: Its CC50 is greater than 100 µM.

Question: What about the TGI ([13]; five-dose, MCF7) of the same compound?
Answer: The TGI was 100.0 µM.

Question: What about the activity at 10 µM ([14]; Homo sapiens, 10 μM, HOP-92, Non-Small-Cell Lung Cancer, read-out: Growth percentage) of the same compound?
Answer: Its activity at 10 µM is 91.9%.

Question: What about the GI50 [14, 23] of the same compound?
Answer: Its GI50 is greater than 100 µM.

Question: What about the IC50 [14, 23] of the same compound?
Answer: The IC50 was greater than 100 µM.

Question: And the LC50 (concentration killing 50% of cells) [14, 23]?
Answer: The LC50 (concentration killing 50% of cells) was greater than 100 µM.

Question: What about the TGI ([14]; five-dose, HOP-92) of the same compound?
Answer: The TGI was 100.0 µM.

Question: What about the GI50 ([15]; Homo sapiens) of the same compound?
Answer: Its GI50 is 2000 nM.

Question: What about the IC50 ([15]; Homo sapiens) of the same compound?
Answer: The IC50 was 4.1 µM.

Question: And the CC50 [15, 16]?
Answer: The CC50 was greater than 100 µM.

Question: What about the TGI [15] of the same compound?
Answer: The TGI was 100.0 µM.
